According to patent US9062028B2, “Bicyclic nitrogen containing heteroaryl TGR5 receptor modulators” (Bristol-Myers Squibb Company, priority 2011, dated 2015):
Structures can show the parent of a compound that is named as a salt.

Biological target: T1, recombinant human TGR5 (Homo sapiens, UniProt Q8TDU6)
T1 construct: expressed in transfected cells
T1 sequence (Q8TDU6 1-330): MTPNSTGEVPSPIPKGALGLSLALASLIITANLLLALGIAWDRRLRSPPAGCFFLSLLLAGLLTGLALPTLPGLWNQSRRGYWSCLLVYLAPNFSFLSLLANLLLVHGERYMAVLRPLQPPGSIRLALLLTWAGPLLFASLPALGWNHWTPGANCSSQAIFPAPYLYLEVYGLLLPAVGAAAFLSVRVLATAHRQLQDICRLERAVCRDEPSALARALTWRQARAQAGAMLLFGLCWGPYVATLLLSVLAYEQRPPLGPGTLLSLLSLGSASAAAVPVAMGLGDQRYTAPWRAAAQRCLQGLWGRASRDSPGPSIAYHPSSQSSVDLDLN
Assay: cAMP assay (cAMP accumulation, HTRF) in CHOK1 cells stably expressing TGR5
Assay type: cell-based
Conditions: CHOK1 cells stably expressing human TGR5, 30 minutes at RT, 1% DMSO
Summary of the method: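 CHOK1 cells stably expressing TGR5 (text also calls it chimeric human/mouse), 0.4-0.5×10^6 cells/mL in PBS with Ca/Mg and 0.1 mM IBMX, compound 30 min at RT, 1% DMSO. cAMP by HTRF 665/620 interpolated to a standard curve; EC50 from 4-parameter fit as half-maximal increase.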

| EC50 [nM] | SMILES |
| --- | --- |
| 177 | Cc1c(Cl)cccc1OCCCC(=O)N1CCSc2c(-c3cnn(Cc4cccc(C(=O)NCCC[C@H](N)C(=O)OC(C)C)c4)c3)cccc21 [Example 635, (S)-Isopropyl 2-amino-5-(3-((4-(4-(4-(3-chloro-2-methylphenoxy)butanoyl)-3,4-dihydro-2H-benzo[b][1,4]thiazin-8-yl)-1H-pyrazol-1-yl)methyl)benzamido)pentanoate, TFA salt] |
| 43 | COC(=O)[C@@H](CCC(=O)O)NC(=O)c1ccc(Cl)c(Cn2cc(-c3cccc4c3[C@H]3C[C@H]3CN4C(=O)OCCOc3cccc(Cl)c3C)cn2)c1 [Example 672, (R)-4-(4-Chloro-3-((4-((1aR,7bS)-3-((2-(3-chloro-2-methylphenoxy)ethoxy)carbonyl)-1a,2,3,7b-tetrahydro-1H-cyclopropa[c]quinolin-7-yl)-1H-pyrazol-1-yl)methyl)benzamido)-5-methoxy-5-oxopentanoic acid] |
| 638 | Cc1cccc(OCCCC(=O)N2CCCc3c(-c4cccc(COC(=O)N[C@@H](Cc5cncn5C)C(=O)O)c4)cccc32)c1C [Example 316, (S)-2-((3-(1-(4-(2,3-Dimethylphenoxy)butanoyl)-1,2,3,4-tetrahydroquinolin-5-yl)benzyloxy)carbonylamino)-3-(1-methyl-1H-imidazol-5-yl) propanoic acid] |
| 45 | Cc1c(Cl)cccc1OCCOC(=O)N1C[C@@H]2C[C@@H]2c2c(-c3cnn(Cc4cc(C(=O)N[C@@H](CCC[N+](C)(C)C)C(=O)O)ccc4Cl)c3)cccc21 [Example 690, (S)-4-Carboxy-4-(4-chloro-3-((4-((1aR,7bS)-3-((2-(3-chloro-2-methylphenoxy)ethoxy)carbonyl)-1a,2,3,7b-tetrahydro-1H-cyclopropa[c]quinolin-7-yl)-1H-pyrazol-1-yl)methyl)benzamido)-N,N,N-trimethylbutan-1-aminium, TFA salt] |
| 173 | Cc1c(Cl)cccc1OCCCC(=O)N1CCCOc2c(-c3cnn(Cc4c(F)cc(C(=O)NCC(=O)O)cc4Cl)c3)cccc21 [Example 786, 2-(3-Chloro-4-((4-(5-(4-(3-chloro-2-methylphenoxy)butanoyl)-2,3,4,5-tetrahydrobenzo[b][1,4]oxazepin-9-yl)-1H-pyrazol-1-yl)methyl)-5-fluorobenzamido)acetic acid] |
| 48 | Cc1c(Cl)cccc1OCCCC(=O)N1CCSc2c(-c3cnn(Cc4cccc(C(=O)NCS(=O)(=O)O)c4)c3)cccc21 [Example 565, (3-((4-(4-(4-(3-Chloro-2-methylphenoxy)butanoyl)-3,4-dihydro-2H-benzo[b][1,4]thiazin-8-yl)-1H-pyrazol-1-yl)methyl)benzamido) methanesulfonic acid] |
| 30 | Cc1c(Cl)cccc1OCCCC(=O)N1CCSc2c(-c3cnn(Cc4cccc(C(=O)NCCO)c4)c3)cccc21 [Example 592, 3-((4-(4-(4-(3-Chloro-2-methylphenoxy)butanoyl)-3,4-dihydro-2H-benzo[b][1,4]thiazin-8-yl)-1H-pyrazol-1-yl)methyl)-N-(2-hydroxyethyl) benzamide] |
| 31 | Cc1c(Cl)cccc1OCCCC(=O)N1C[C@@H]2C[C@@H]2c2c(-c3cnn(Cc4cccc(N5C(=O)CN(CC(=O)O)C5=O)c4)c3)cccc21 [Example 350, 2-(3-(3-((4-((1aR,7bS)-3-(4-(3-Chloro-2-methylphenoxy)butanoyl)-1a,2,3,7b-tetrahydro-1H-cyclopropa[c]quinolin-7-yl)-1H-pyrazol-1-yl)methyl)phenyl)-2,4-dioxoimidazolidin-1-yl) acetic acid] |
| 188 | Cc1c(Cl)cccc1OCCOC(=O)N1CCSc2c(-c3cnn(Cc4cccc(C(=O)NCCS(=O)(=O)O)c4Cl)c3)cccc21 [Example 626, 2-(2-Chloro-3-((4-(4-((2-(3-chloro-2-methylphenoxy)ethoxy)carbonyl)-3,4-dihydro-2H-benzo[b][1,4]thiazin-8-yl)-1H-pyrazol-1-yl)metehyl)benzamido)ethanesulfonic acid] |
| 2810 | Cc1cccc(OCCCC(=O)N2CCCc3c(-c4cccc(COC(=O)NC(CCS)C(=O)O)c4)cccc32)c1C (stereo not shown) [Example 289, 2-((3-(1-(4-(2,3-Dimethylphenoxy)butanoyl)-1,2,3,4-tetrahydroquinolin-5-yl)benzyloxy)carbonylamino)-4-mercaptobutanoic acid] |
| 189 | Cc1cccc(OCCCC(=O)N2CCCOc3c(-c4cnn(Cc5c(F)cc(C(=O)O)cc5Cl)c4)cccc32)c1C [Example 392, 3-Chloro-4-((4-(5-(4-(2,3-dimethylphenoxy)butanoyl)-2,3,4,5-tetrahydrobcnzo[b] [1,4]oxazepin-9-yl)-1H-pyrazol-1-yl)methyl)-5-fluorobenzoic acid] |
| 1650 | Cc1cccc(OCCCC(=O)N2CCCc3c(-c4cnn(Cc5cncc(C(=O)O)c5)c4)cccc32)c1C [Example 359, 5-((4-(1-(4-(2,3-Dimethylphenoxy)butanoyl)-1,2,3,4-tetrahydroquinolin-5-yl)-1H-pyrazol-1-yl)methyl) nicotinic acid, TFA salt] |

Further lines, the compound ahead of its results:

| SMILES | EC50 [nM] |
| --- | --- |
| Cc1c(Cl)cccc1OCCCC(=O)N1CC2CC2c2c(-c3cnn(Cc4cccc(C(=O)NCS(=O)(=O)O)c4)c3)cccc21 (stereo not shown) [Example 222, (3-((4-(3-(4-(3-Chloro-2-methylphenoxy)butanoyl)-1a,2,3,7b-tetrahydro-1H-cyclopropa[c]quinolin-7-yl)-1H-pyrazol-1-yl)methyl)benzamido)methanesulfonic acid] | 55 |
| Cc1cccc(OCCCC(=O)N2CCCc3c(-c4cnn(C(C)(C)C(=O)NCCS(=O)(=O)O)c4)cccc32)c1C [Example 146Y, 2-(2-(4-(1-(4-(2,3-Dimethylphenoxy)butanoyl)-1,2,3,4-tetrahydroquinolin-5-yl)-1H-pyrazol-1-yl)-2-methylpropanamido)ethanesulfonic acid] | 2860 |
| Cc1cccc(OCCCC(=O)N2CC3CC3c3c(-c4cnn(Cc5c(F)cc(C(=O)NCCC[C@H](NC(=N)N)C(=O)O)cc5Cl)c4)cccc32)c1C (stereo partly drawn) [Example 69F, (2S)-5-(3-Chloro-4-((4-(3-(4-(2,3-dimethylphenoxy)butanoyl)-1a,2,3,7b-tetrahydro-1H-cyclopropa[c]quinolin-7-yl)-1H-pyrazol-1-yl)methyl)-5-fluorobenzamido)-2-guanidinopentanoic acid] | 54 |
| Cc1c(Cl)cccc1OCCCC(=O)N1C[C@@H]2C[C@@H]2c2c(-c3cnn(Cc4cccc(C(=O)NCS(=O)(=O)O)c4)c3)cccc21 (single isomer, unassigned) [Example 242] | 49 |
| Cc1cccc(OCCCC(=O)N2CCCc3c(-c4cccc(COC(=O)NC(C)CC(=O)O)c4)cccc32)c1C (stereo not shown) [Example 275, 3-((3-(1-(4-(2,3-Dimethylphenoxy)butanoyl)-1,2,3,4-tetrahydroquinolin-5-yl)benzyloxy)carbonylamino) butanoic acid] | 608 |
| Cc1cccc(OCCCC(=O)N2CCCc3c(-c4nnn(Cc5cccc(C(=O)O)c5)n4)cccc32)c1C [Example 112, 3-((5-(1-(4-(2,3-Dimethylphenoxy)butanoyl)-1,2,3,4-tetrahydroquinolin-5-yl)-2H-tetrazol-2-yl)methyl)benzoic acid] | 145 |
| Cc1cccc(OCCCC(=O)N2CCCc3c(-c4cccc(COC(=O)NC(Cc5c[nH]cn5)C(=O)O)c4)cccc32)c1C (stereo not shown) [Example 283, 2-((3-(1-(4-(2,3-Dimethylphenoxy)butanoyl)-1,2,3,4-tetrahydroquinolin-5-yl)benzyloxy)carbonylamino)-3-(1H-imidazol-4-yl)propanoic acid] | 3180 |
| Cc1c(Cl)cccc1OCCCC(=O)N1CCCOc2c(-c3cnn(Cc4cccc(C(=O)NCS(=O)(=O)O)c4)c3)cccc21 [Example 146R, (3-((4-(5-(4-(3-Chloro-2-methylphenoxy)butanoyl)-2,3,4,5-tetrahydrobenzo[b][1,4]oxazepin-9-yl)-1H-pyrazol-1-yl)methyl)benzamido) methanesulfonic acid] | 49 |
| Cc1cccc(OCCCC(=O)N2C[C@H]3C[C@H]3c3c(-c4cnn(Cc5cccc(NC(=O)NCC(=O)O)c5)c4)cccc32)c1C (single isomer, unassigned) [Example 251] | 644 |
| Cc1cccc(OCCCC(=O)N2CC3CC3c3c(-c4cnn(Cc5c(F)cc(C(=O)NCS(=O)(=O)O)cc5Cl)c4)cccc32)c1C (stereo not shown) [Example 69B, (3-Chloro-4-((4-(3-(4-(2,3-dimethylphenoxy)butanoyl)-1a,2,3,7b-tetrahydro-1H-cyclopropa[c]quinolin-7-yl)-1H-pyrazol-1-yl)methyl)-5-fluorobenzamido)methanesulfonic acid] | 50 |
| Cc1cccc(OCCCC(=O)N2CCCc3c(-c4cccc(C(=O)NCC(=O)O)c4)cccc32)c1C [Example 138, 2-(3-(1-(4-(2,3-Dimethylphenoxy)butanoyl)-1,2,3,4-tetrahydroquinolin-5-yl)benzamido)acetic acid] | 3460 |
| Cc1cccc(OCCCC(=O)N2CCCc3c(-c4cccc(COC(=O)N[C@@H](Cc5ccc(OP(=O)(O)O)cc5)C(=O)O)c4)cccc32)c1C [Example 324, (S)-2-((3-(1-(4-(2,3-Dimethylphenoxy)butanoyl)-1,2,3,4-tetrahydroquinolin-5-yl)benzyloxy)carbonylamino)-3-(4-(phosphonooxy)phenyl)propanoic acid] | 3390 |
| Cc1cccc(OCCCC(=O)N2CCCc3c(-c4cnn(Cc5cccc(S(=O)(=O)NCCS(=O)(=O)O)c5)c4)cccc32)c1C [Example 110T, 2-(3-((4-(1-(4-(2,3-Dimethylphenoxy)butanoyl)-1,2,3,4-tetrahydroquinolin-5-yl)-1H-pyrazol-1-yl)methyl)phenylsulfonamido) ethanesulfonic acid] | 609 |
